Results as given in patent US20060111366A1, “Pharmaceutical use of substituted amides” (Novo Nordisk A/S, priority 2003, published 2006).

Target: T1, h-11βHSD1 (Homo sapiens, UniProt P28845)
T1 construct: made in house
Experiment: 11βHSD1 enzyme assay (scintillation proximity assay, conversion of 3H-cortisone to 3H-cortisol)
Assay type: biochemical
Settings: extract of yeast transformed with h-11βHSD1; 120 nM 3H-cortisone, 4 mM β-NADPH, 60 min at 30° C.
Procedure: ^3H-cortisone and anti-rabbit Ig coated scintillation proximity assay (SPA) beads were purchased from Amersham Pharmacia Biotech, β-NADPH was from Sigma and rabbit anticortisol antibodies were from Fitzgerald. An extract of yeast transformed with h-11βHSD1 (Hult et al., FEBS Lett., 441, 25 (1998)) was used as the source of enzyme. The test compounds were dissolved in DMSO (10 mM). All dilutions were performed in a buffer containing 50 mM TRIS-HCl (Sigma Chemical Co), 4 mM EDTA (Sigma Chemical Co), 0.1% BSA (Sigma Chemical Co), 0.01% Tween-20 (Sigma Chemical Co) and 0.005% bacitracin (Novo Nordisk A/S), pH=7.4. Optiplate 96 wells plates were supplied by Packard. The amount of ^3H-cortisol bound to the SPA beads was measured on TopCount NXT, Packard.
h-11βHSD1, 120 nM ^3H-cortisone, 4 mM β-NADPH, antibody (1:200), serial dilutions of test compound and SPA particles (2 mg/well) were added to the wells. The reaction was initiated by mixing the different components and was allowed to proceed under shaking for 60 min at 30° C. […] Data was analysed using GraphPad Prism software.

T1 sequence (P28845 whole entry): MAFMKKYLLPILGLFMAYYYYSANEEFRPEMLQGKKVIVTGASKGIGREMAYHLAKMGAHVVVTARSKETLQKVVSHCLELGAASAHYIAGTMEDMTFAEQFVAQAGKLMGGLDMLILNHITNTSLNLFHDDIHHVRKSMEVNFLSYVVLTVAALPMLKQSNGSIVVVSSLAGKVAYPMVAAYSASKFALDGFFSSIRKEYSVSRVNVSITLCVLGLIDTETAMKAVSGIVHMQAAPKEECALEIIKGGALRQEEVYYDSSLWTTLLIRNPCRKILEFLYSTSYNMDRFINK

| IC50 [nM] | SMILES |
| --- | --- |
| 45 | CN(C(=O)c1ccc2[nH]cnc2c1)C1CCCCC1 [(V) 1, 1H-Benzoimidazole-5-carboxylic acid cyclohexyl-methyl-amide] |
| 6 | CC1Oc2c(C(=O)N(C)C3CCCCC3)cccc2C1C (stereo not drawn) [(VI) 1, 2,3-Dimethyl-2,3-dihydro-benzofuran-7-carboxylic acid cyclohexyl-methyl-amide] |
| 118 | CN(C(=O)c1ccc2cc[nH]c2c1)C1CCCCC1 [(VII) 2, 1H-Indole-6-carboxylic acid cyclohexyl-methyl-amide] |

The remaining lines, values behind:

| SMILES | IC50 [nM] |
| --- | --- |
| CN(C(=O)CCCOc1ccc2c(c1)OCO2)C1CCCCC1 [(I) 1, 4-(Benzo[1,3]dioxol-5-yloxy)-N-cyclohexyl-N-methyl-butyramide] | 560 |
| CN1CCC(N(C)C(=O)CCCOc2ccccc2)CC1 [(I) 2, N-Methyl-N-(1-methyl-piperidin-4-yl)-4-Phenoxy-butyramide] | 120000 |
| CCCc1c(C(=O)N(C)C2CCCCC2)cnn1-c1ccc(Cl)cc1 [(III) 1, 1-(4-Chloro-phenyl)-5-propyl-1H-pyrazole-4-carboxylic acid cyclohexyl-methyl-amide] | 40 |
